PubChem BioAssay AID1963973 (Molecular Pharmacology Branch, DTP, NCI, 2024)

Tested on: 883617-216-R-J1-PDC tumor spheroids, viability
Experiment: Anticancer human tumor 883617-216-R-J1-PDC patient-derived bladder carcinoma cell line growth inhibition [PI3K]
Conditions: spheroids with HUVEC and MSC; for IC50: curve of first compound; for viability, T/C: stronger effect = lower value
Procedure, shortened: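 High-throughput combination screen: PI3K inhibitors crossed with targeted small molecules on complex spheroids of tumor cells, HUVEC and MSCs at 37 degrees C, 5% CO2. Top concentration was at or near clinical Cmax (otherwise 10 microM), with half-log decrements.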

[1] = second compound 0.0316 µM, first compound 0.0316 µM
[2] = second compound 0.0316 µM, first compound 0.1 µM
[3] = second compound 0.0316 µM, first compound 0.316 µM
[4] = second compound 0.0316 µM, first compound 1 µM
[5] = second compound 0.0316 µM, first compound 3.16 µM
[6] = second compound 0.0316 µM, first compound 10 µM
[7] = second compound 0.1 µM, first compound 0.0316 µM
[8] = second compound 0.1 µM, first compound 0.1 µM
[9] = second compound 0.1 µM, first compound 0.316 µM
[10] = second compound 0.1 µM, first compound 1 µM
[11] = second compound 0.1 µM, first compound 3.16 µM
[12] = second compound 0.1 µM, first compound 10 µM
[13] = second compound 0.316 µM, first compound 0.0316 µM
[14] = second compound 0.316 µM, first compound 0.1 µM
[15] = second compound 0.316 µM, first compound 0.316 µM
[16] = second compound 0.316 µM, first compound 1 µM
[17] = second compound 0.316 µM, first compound 3.16 µM
[18] = second compound 0.316 µM, first compound 10 µM
[19] = second compound 1 µM, first compound 0.0316 µM
[20] = second compound 1 µM, first compound 0.1 µM
[21] = second compound 1 µM, first compound 0.316 µM
[22] = second compound 1 µM, first compound 1 µM
[23] = second compound 1 µM, first compound 3.16 µM
[24] = second compound 1 µM, first compound 10 µM
[25] = second compound 3.16 µM, first compound 0.0316 µM
[26] = second compound 3.16 µM, first compound 0.1 µM
[27] = second compound 3.16 µM, first compound 0.316 µM
[28] = second compound 3.16 µM, first compound 1 µM
[29] = second compound 3.16 µM, first compound 3.16 µM
[30] = second compound 3.16 µM, first compound 10 µM
[31] = second compound 10 µM, first compound 0.0316 µM
[32] = second compound 10 µM, first compound 0.1 µM
[33] = second compound 10 µM, first compound 0.316 µM
[34] = second compound 10 µM, first compound 1 µM
[35] = second compound 10 µM, first compound 3.16 µM
[36] = second compound 10 µM, first compound 10 µM
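Note: spheroids exposed to agents for 7 days before the viability read.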

Structure (SMILES): CC1(C)CCC(CN2CCN(c3ccc(C(=O)NS(=O)(=O)c4ccc(NCC5CCOCC5)c([N+](=O)[O-])c4)c(Oc4cnc5[nH]ccc5c4)c3)CC2)=C(c2ccc(Cl)cc2)C1 + Cc1nc(NC(=O)N2CCCC2C(N)=O)sc1-c1ccnc(C(C)(C)C(F)(F)F)c1
- IC50 (second compound 0.0316 µM): 5050 nM
- IC50 (second compound 0.1 µM): 4460 nM
- IC50 (second compound 0.316 µM): < 31.6 nM
- IC50 (second compound 1 µM): < 31.6 nM
- IC50 (second compound 3.16 µM): < 31.6 nM
- IC50 (second compound 10 µM): < 31.6 nM
- viability, T/C [1]: 85.3%
- viability, T/C [2]: 84%
- viability, T/C [3]: 87.7%
- viability, T/C [4]: 81.2%
- viability, T/C [5]: 81.8%
- viability, T/C [6]: 3.63%
- viability, T/C [7]: 66.6%
- viability, T/C [8]: 66.1%
- viability, T/C [9]: 79.5%
- viability, T/C [10]: 67.3%
- viability, T/C [11]: 71.3%
- viability, T/C [12]: 3.02%
- viability, T/C [13]: 47.4%
- viability, T/C [14]: 45%
- viability, T/C [15]: 51.2%
- viability, T/C [16]: 52.6%
- viability, T/C [17]: 44.5%
- viability, T/C [18]: 4.5%
- viability, T/C [19]: 41.3%
- viability, T/C [20]: 28.9%
- viability, T/C [21]: 29.4%
- viability, T/C [22]: 33.2%
- viability, T/C [23]: 30.7%
- viability, T/C [24]: 3.44%
- viability, T/C [25]: 14.8%
- viability, T/C [26]: 14.4%
- viability, T/C [27]: 17.1%
- viability, T/C [28]: 14.3%
- viability, T/C [29]: 14.7%
- viability, T/C [30]: 2.57%
- viability, T/C [31]: 7.93%
- viability, T/C [32]: 12.9%
- viability, T/C [33]: 7.45%
- viability, T/C [34]: 8.13%
- viability, T/C [35]: 7.77%
- viability, T/C [36]: 1.74%

Structure (SMILES): C[C@@H](NC(=O)c1ncnc(N)c1Cl)c1ncc(C(=O)Nc2cc(C(F)(F)F)c(Cl)cn2)s1 + Cc1nc(NC(=O)N2CCCC2C(N)=O)sc1-c1ccnc(C(C)(C)C(F)(F)F)c1
- IC50 (second compound 0.0316 µM): > 10000 nM
- IC50 (second compound 0.1 µM): > 10000 nM
- IC50 (second compound 0.316 µM): 2000 nM
- IC50 (second compound 1 µM): < 31.6 nM
- IC50 (second compound 3.16 µM): < 31.6 nM
- IC50 (second compound 10 µM): < 31.6 nM
- viability, T/C [1]: 89.3%
- viability, T/C [2]: 91.5%
- viability, T/C [3]: 94.9%
- viability, T/C [4]: 85.2%
- viability, T/C [5]: 82.1%
- viability, T/C [6]: 58%
- viability, T/C [7]: 69%
- viability, T/C [8]: 74.2%
- viability, T/C [9]: 73.3%
- viability, T/C [10]: 73%
- viability, T/C [11]: 75.1%
- viability, T/C [12]: 57.7%
- viability, T/C [13]: 48.3%
- viability, T/C [14]: 52.6%
- viability, T/C [15]: 49.7%
- viability, T/C [16]: 53.8%
- viability, T/C [17]: 48.8%
- viability, T/C [18]: 37.9%
- viability, T/C [19]: 29.6%
- viability, T/C [20]: 33.4%
- viability, T/C [21]: 29.2%
- viability, T/C [22]: 33%
- viability, T/C [23]: 24.9%
- viability, T/C [24]: 24.4%
- viability, T/C [25]: 15.3%
- viability, T/C [26]: 14.3%
- viability, T/C [27]: 16.9%
- viability, T/C [28]: 15.7%
- viability, T/C [29]: 16.6%
- viability, T/C [30]: 12.1%
- viability, T/C [31]: 9.78%
- viability, T/C [32]: 8.18%
- viability, T/C [33]: 11.9%
- viability, T/C [34]: 8.65%
- viability, T/C [35]: 7.27%
- viability, T/C [36]: 3.76%
